Converted amounts (≈) assume the structure as drawn.
Experiments:
Type in all cases: physicochemical
[1] = Solubility of crystalline Form I and Form II in various media
[2] = Bulk-state stability and thermal conversion of crystalline forms; details: one week when stored at 50° C., 50° C./75% RH and 80° C.
[3] = Slurry competition studies of crystalline forms in 2-propanol; details: 2-propanol at room temperature
[4] = Fasted state simulated intestinal fluid [pH 6.5]
[5] = Fed state simulated intestinal fluid [pH 5.8]

Structure (SMILES) | Solubility [1, 4] | Solubility [1, 5] | Solubility ([1]; Simulated gastric fluid [pH 2]) | Solubility ([1]; Water) | Solubility ([1]; pH 1 (0.1N HCl)) | Solubility ([1]; pH 3 citrate buffer) | Solubility ([1]; pH 4.65 acetate buffer) | Solubility ([1]; pH 6.8 phosphate buffer) | chemical and physical stability in bulk state [2] | relative thermodynamic stability (slurry competition) [3]
CCOC(=O)[C@H](C)N[P@@]1(=O)OC[C@H]2O[C@@H](n3cnc4c(OCC)nc(N)nc43)[C@](C)(F)[C@@H]2O1 [Form I, (S)-ethyl 2-(((2R,4aR,6R,7R,7aR)-6-(2-amino-6-ethoxy-9H-purin-9-yl)-7-fluoro-7-methyl-2-oxidotetrahydro-4H-furo[3,2-d][1,3,2]dioxaphosphinin-2-yl)amino)propanoate] | 0.632 [6.36] mg/ml | 0.665 [5.80] mg/ml | 0.681 [2.11] mg/ml | 0.799 [3.82] mg/ml | 1.249 [1.39] mg/ml | 0.816 [3.04] mg/ml | 0.687 [4.67] mg/ml | 0.794 [6.70] mg/ml | chemically and physically stable | –
CCOC(=O)[C@H](C)N[P@@]1(=O)OC[C@H]2O[C@@H](n3cnc4c(OCC)nc(N)nc43)[C@](C)(F)[C@@H]2O1 [Form II, (S)-ethyl 2-(((2R,4aR,6R,7R,7aR)-6-(2-amino-6-ethoxy-9H-purin-9-yl)-7-fluoro-7-methyl-2-oxidotetrahydro-4H-furo[3,2-d][1,3,2]dioxaphosphinin-2-yl)amino)propanoate] | 0.0888 mg/mL (≈ 182 µM) | 0.0995 mg/mL (≈ 204 µM) | 0.150 mg/mL (≈ 307 µM) | 0.0676 mg/mL (≈ 138 µM) | 0.246 mg/mL (≈ 504 µM) | 0.0740 mg/mL (≈ 152 µM) | 0.0557 mg/mL (≈ 114 µM) | 0.0551 mg/mL (≈ 113 µM) | chemically and physically stable | thermodynamically more stable than Form I and III

Reference: US20140205566A1, “CYCLIC NUCLEUOSIDE DERIVATIVES AND USES THEREOF” (NOVARTIS AG, priority 2012, published 2014)
